We go through two molecules from patent US8802732B2, “Lycopene and resveratrol compositions for NK cell activation resulting in anti-neoplastic effect” (Hsiehs Biotech (Singapore) Pte Ltd, priority 2009, dated 2014).

Each structure is given as a SMILES string.

In test [1] the test system is NK cells. Put plainly: Cytotoxic activity of spleen NK cells from orally treated mice against B16 melanoma cells (LDH release). It counts as in vivo, Balb/c mice. The settings on record: oral daily for one week; lycopene 2 mg/day or resveratrol 4 mg/day. Here is the method: NK cells were isolated from Balb/c mice spleen. Each group of mice were killed at day 7 post-feeding of lycopene/resveratrol. The spleens were excised and soaked in 75% ethanol for 5 min, and smeared gently on cell sieves. The single cells were collected by flushing the sieve with RPMI-1640 medium. The derived total spleen cells were isolated by centrifugation at 2000 rpm by placing the mixture on the top of lymphocyte separation solution for 25 min. The white-colored lymphocyte layer was recovered carefully, and washed twice with serum-free RPMI-1640 medium, counted and transferred into 6-well plates as the stock. The lymphocytes thus prepared contains 10-20% of NK cells, and used for NK cell assay [Ref. 18: Zhang (2006)].
The B16 melanoma was excised from a tumor-bearing C57 mouse, and soaked in Hank's medium for 30 min. The adipose and necrotic parts of the tumor were removed, and the tumor was cut into small pieces and treated with RPMI-1640 containing 0.1% type II […] at 4° C. for 12 h. […]
NK cells isolated from mice spleen were mixed with B16 melanoma cells at ratios of 25:1, 50:1 and 100:1, and incubated at 37° C. After 5 h, the lactate dehydrogenase (LDH) activities in 100 μl of culture media were measured as the cytolytic activity of NK cells. Cytotoxicity is calculated according to the following formula. […]
For orientation: LDH leaks from cells whose membrane has failed.

The conditions of test [2]: cited from earlier work.

With `CC(C)=CCC/C(C)=C/C=C/C(C)=C/C=C/C(C)=C/C=C/C=C(C)/C=C/C=C(C)/C=C/C=C(\C)CCC=C(C)C` [lycopene], the “NK cytotoxicity change versus control” value in test [1] is listed as “slight increase (not significantly)”. For the same molecule, the “anti-oxidative activity, higher than vitamin E” value in test [2] (relative to vitamin E) is 100 folds. The “anti-oxidative activity, higher than β-carotene” value in test [2] (relative to β-carotene) is listed as 3.2 folds.

Consider `Oc1ccc(C=Cc2cc(O)cc(O)c2)cc1` [resveratrol], for which, in test [1], the “NK cytotoxicity change versus control” value is recorded as “slight increase (not significantly)”.
